In patent US20240376084A1, “INHIBITORS OF ALPHA-HEMOLYSIN OF STAPHYLOCOCCUS AUREUS” (Helmholtz-Zentrum Fur Infektionsforschung GmbH, priority 2021, published 2024) one finds EC50 data, which are given here for 29 compounds.

In experiment [1] the target is hemolysin alpha from Staphylococcus aureus (Staphylococcus aureus, UniProt P09616). As to the kind of experiment: cell-based.
For experiment [2], the target named is S. aureus Alpha hemolysin (Staphylococcus aureus, UniProt P09616). In words: cell-based. The note with it: A549-LDH Assay activity.

SMILES strings stand for the structures.

Chain of hemolysin alpha from Staphylococcus aureus (P09616 27-319 limits assumed): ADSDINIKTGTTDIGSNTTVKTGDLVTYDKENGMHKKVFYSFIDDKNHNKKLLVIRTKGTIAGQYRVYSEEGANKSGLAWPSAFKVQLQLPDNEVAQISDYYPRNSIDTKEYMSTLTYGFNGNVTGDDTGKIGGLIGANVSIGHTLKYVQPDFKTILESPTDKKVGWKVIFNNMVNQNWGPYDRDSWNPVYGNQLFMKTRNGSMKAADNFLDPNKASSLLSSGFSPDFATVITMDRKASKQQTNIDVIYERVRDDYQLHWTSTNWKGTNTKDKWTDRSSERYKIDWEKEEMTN
Chain of S. aureus Alpha hemolysin (P09616 27-319 limits assumed): as above

For `O=c1[nH]c2cc(NCCO)c(S(=O)(=O)Nc3ccc(OC(F)(F)F)cc3)cc2[nH]c1=O` [Compound 281, 7-(2-hydroxyethylamino)-2,3-dioxo-N-[4-(trifluoromethoxy)phenyl]-1,4-dihydroquinoxaline-6-sulfonamide], the EC50 in experiment [1] and in experiment [2] was < 30 nM in each case.

`Cc1cc2[nH]c(=O)c(=O)[nH]c2cc1S(=O)(=O)Nc1ccc(-c2cc(CO)ccc2F)c(Cl)c1` [Compound 282, N-[3-chloro-4-[2-fluoro-5-(hydroxymethyl)phenyl]phenyl]-7-methyl-2,3-dioxo-1,4-dihydroquinoxaline-6-sulfonamide]: the EC50 in experiment [1] lay within 30 to 100 nM; in experiment [2] it was 100 to 1000 nM.

On to `Cc1cc2[nH]c(=O)c(=O)[nH]c2cc1S(=O)(=O)Nc1ccc(-c2ccc3c(c2)ncn3C)c(Cl)c1` [Compound 283, N-[3-chloro-4-(1-methylbenzimidazol-5-yl)phenyl]-7-methyl-2,3-dioxo-1,4-dihydroquinoxaline-6-sulfonamide], for which the 50% effective concentration (EC50) in experiment [1] and in experiment [2] was 100 to 1000 nM throughout.

Regarding `Cc1cc2[nH]c(=O)c(=O)[nH]c2cc1S(=O)(=O)Nc1ccc(C2CCCCC2)c(Cl)c1` [Compound 284, N-(3-chloro-4-cyclohexyl-phenyl)-7-methyl-2,3-dioxo-1,4-dihydroquinoxaline-6-sulfonamide], the EC50 is 30 to 100 nM in experiment [1] and 100 to 1000 nM in experiment [2].

In the case of `Cc1cc2[nH]c(=O)c(=O)[nH]c2cc1S(=O)(=O)Nc1ccc(-n2ccnc2)c(Cl)c1` [Compound 285, N-(3-chloro-4-imidazol-1-yl-phenyl)-7-methyl-2,3-dioxo-1,4-dihydroquinoxaline-6-sulfonamide], the EC50 in experiment [1] and in experiment [2] was 100 to 1000 nM throughout.

Turning to `Cc1ccc(-c2ccc(NS(=O)(=O)c3cc4[nH]c(=O)c(=O)[nH]c4cc3C)cc2Cl)cc1Cl` [Compound 286, N-[3-chloro-4-(3-chloro-4-methyl-phenyl)phenyl]-7-methyl-2,3-dioxo-1,4-dihydroquinoxaline-6-sulfonamide], the values for the EC50 in experiment [1] and in experiment [2] were 30 to 100 nM and 100 to 1000 nM, respectively.

`Cc1cc2[nH]c(=O)c(=O)[nH]c2cc1S(=O)(=O)Nc1ccc(-c2ccc3c(c2)OC(F)(F)O3)c(Cl)c1` [Compound 287, N-[3-chloro-4-(2,2-difluoro-1,3-benzodioxol-5-yl)phenyl]-7-methyl-2,3-dioxo-1,4-dihydroquinoxaline-6-sulfonamide]: the EC50 in experiment [1] and in experiment [2] was 30 to 100 nM in each case.

`Cc1cc2[nH]c(=O)c(=O)[nH]c2cc1S(=O)(=O)Nc1ccc(-c2ccc(N(C)C)cc2)c(Cl)c1` [Compound 288, N-[3-chloro-4-[4-(dimethylamino)phenyl]phenyl]-7-methyl-2,3-dioxo-1,4-dihydroquinoxaline-6-sulfonamide]: the values for the EC50 in experiment [1] and in experiment [2] were 100 to 1000 nM and 1000 to 6000 nM, respectively.

Consider `COc1ccc(-c2ccc(NS(=O)(=O)c3cc4[nH]c(=O)c(=O)[nH]c4cc3C)cc2Cl)cc1C#N` [Compound 289, N-[3-chloro-4-(3-cyano-4-methoxy-phenyl)phenyl]-7-methyl-2,3-dioxo-1,4-dihydroquinoxaline-6-sulfonamide], for which the EC50 in experiment [1] is 30 to 100 nM; in experiment [2], 100 to 1000 nM.

Regarding `Cc1cc2[nH]c(=O)c(=O)[nH]c2cc1S(=O)(=O)Nc1ccc(-c2csc(C#N)c2)c(Cl)c1` [Compound 290, N-[3-chloro-4-(5-cyano-3-thienyl)phenyl]-7-methyl-2,3-dioxo-1,4-dihydroquinoxaline-6-sulfonamide], the EC50 in experiment [1] is < 30 nM; in experiment [2], 30 to 100 nM.

Consider `Cc1cc2[nH]c(=O)c(=O)[nH]c2cc1S(=O)(=O)Nc1ccc(-c2ccc(OC(C)C)nc2)c(Cl)c1` [Compound 291, N-[3-chloro-4-(6-isopropoxy-3-pyridyl)phenyl]-7-methyl-2,3-dioxo-1,4-dihydroquinoxaline-6-sulfonamide], for which the EC50 in experiment [1] and in experiment [2] was 100 to 1000 nM each time.

For the compound `Cc1cc2[nH]c(=O)c(=O)[nH]c2cc1S(=O)(=O)Nc1ccc(-n2ccnc2)cc1` [Compound 292, N-(4-imidazol-1-ylphenyl)-7-methyl-2,3-dioxo-1,4-dihydroquinoxaline-6-sulfonamide], the EC50 fell in the range of 1000 to 3500 nM in experiment [1] and 1000 to 6000 nM in experiment [2].

As to `CCO/C=C/c1ccc(NS(=O)(=O)c2cc3[nH]c(=O)c(=O)[nH]c3cc2C)cc1Cl` [Compound 293, N-[3-chloro-4-[(E)-2-ethoxyvinyl]phenyl]-7-methyl-2,3-dioxo-1,4-dihydroquinoxaline-6-sulfonamide], the figures for the EC50 in experiment [1] and in experiment [2] were 100 to 1000 nM and 1000 to 6000 nM, respectively.

On to `Cc1cc2[nH]c(=O)c(=O)[nH]c2cc1S(=O)(=O)Nc1ccc(-c2ccc3[nH]c(=O)[nH]c3c2)c(Cl)c1` [Compound 294, N-[3-chloro-4-(2-oxo-1,3-dihydrobenzimidazol-5-yl)phenyl]-7-methyl-2,3-dioxo-1,4-dihydroquinoxaline-6-sulfonamide], for which the EC50 in experiment [1] and in experiment [2] was 100 to 1000 nM in each case.

For the compound `Cc1cc2[nH]c(=O)c(=O)[nH]c2cc1S(=O)(=O)Nc1ccc(-c2cc(F)ccc2F)c(Cl)c1` [Compound 295, N-[3-chloro-4-(2,5-difluorophenyl)phenyl]-7-methyl-2,3-dioxo-1,4-dihydroquinoxaline-6-sulfonamide], the figures for the EC50 in experiment [1] and in experiment [2] were 30 to 100 nM and 100 to 1000 nM, respectively.

Take `CC(C)=Cc1ccc(NS(=O)(=O)c2cc3[nH]c(=O)c(=O)[nH]c3cc2C)cc1Cl` [Compound 296, N-[3-chloro-4-(2-methylprop-1-enyl)phenyl]-7-methyl-2,3-dioxo-1,4-dihydroquinoxaline-6-sulfonamide]: the EC50 in experiment [1] and in experiment [2] was 30 to 100 nM in each case.

In the case of `Cc1cc2[nH]c(=O)c(=O)[nH]c2cc1S(=O)(=O)Nc1ccc(C2=CCOCC2)cc1` [Compound 297, N-[4-(3,6-dihydro-2H-pyran-4-yl)phenyl]-7-methyl-2,3-dioxo-1,4-dihydroquinoxaline-6-sulfonamide], the EC50 in experiment [1] and in experiment [2] was 100 to 1000 nM in each case.

Turning to `Cc1cc2[nH]c(=O)c(=O)[nH]c2cc1S(=O)(=O)Nc1ccc(-c2ccc(C#N)cc2)c(Br)c1` [Compound 298, N-[3-bromo-4-(4-cyanophenyl)phenyl]-7-methyl-2,3-dioxo-1,4-dihydroquinoxaline-6-sulfonamide], the EC50 is < 30 nM in experiment [1] and 30 to 100 nM in experiment [2].

On to `Cc1cc2[nH]c(=O)c(=O)[nH]c2cc1S(=O)(=O)Nc1ccc(C2=CCCCC2)c(Br)c1` [Compound 299, N-[3-bromo-4-(cyclohexen-1-yl)phenyl]-7-methyl-2,3-dioxo-1,4-dihydroquinoxaline-6-sulfonamide], for which the EC50 in experiment [1] and in experiment [2] was 30 to 100 nM throughout.

As for `C#Cc1cc(NS(=O)(=O)c2cc3[nH]c(=O)c(=O)[nH]c3cc2C)ccc1-c1ccc(OC)c(F)c1` [Compound 300, N-[3-ethynyl-4-(3-fluoro-4-methoxy-phenyl)phenyl]-7-methyl-2,3-dioxo-1,4-dihydroquinoxaline-6-sulfonamide], the EC50 in experiment [1] and in experiment [2] was < 30 nM each time.

On to `C#Cc1cc(NS(=O)(=O)c2cc3[nH]c(=O)c(=O)[nH]c3cc2C)ccc1-c1ccc2cc[nH]c2c1` [Compound 301, N-[3-ethynyl-4-(1H-indol-6-yl)phenyl]-7-methyl-2,3-dioxo-1,4-dihydroquinoxaline-6-sulfonamide], for which the EC50 in experiment [1] and in experiment [2] was < 30 nM in each case.

With `COc1ccc(-c2ccc(NS(=O)(=O)c3cc4[nH]c(=O)c(=O)[nH]c4cc3C)cc2Br)cc1F` [Compound 302, N-[3-bromo-4-(3-fluoro-4-methoxy-phenyl)phenyl]-7-methyl-2,3-dioxo-1,4-dihydroquinoxaline-6-sulfonamide], the EC50 in experiment [1] and in experiment [2] was < 30 nM throughout.

`COc1ccc(-c2ncc(NS(=O)(=O)c3cc4[nH]c(=O)c(=O)[nH]c4cc3C)cc2Cl)cc1F` [Compound 303, N-[5-chloro-6-(3-fluoro-4-methoxy-phenyl)-3-pyridyl]-7-methyl-2,3-dioxo-1,4-dihydroquinoxaline-6-sulfonamide]: the EC50 in experiment [1] and in experiment [2] was 100 to 1000 nM each time.

On to `Cc1cc2[nH]c(=O)c(=O)[nH]c2cc1S(=O)(=O)Nc1ccc(C2CCOCC2)cc1` [Compound 304, 7-methyl-2,3-dioxo-N-(4-tetrahydropyran-4-ylphenyl)-1,4-dihydroquinoxaline-6-sulfonamide], for which the EC50 in experiment [1] was 1000 to 3500 nM; in experiment [2], 100 to 1000 nM.

Consider `Cc1cc2[nH]c(=O)c(=O)[nH]c2cc1S(=O)(=O)Nc1cnc(-c2ccc(C#N)cc2)c(Cl)c1` [Compound 305, N-[5-chloro-6-(4-cyanophenyl)-3-pyridyl]-7-methyl-2,3-dioxo-1,4-dihydroquinoxaline-6-sulfonamide], for which the results for the EC50 in experiment [1] and in experiment [2] were 100 to 1000 nM and 30 to 100 nM, respectively.

`Cc1cc2[nH]c(=O)c(=O)[nH]c2cc1S(=O)(=O)Nc1ccc(C2CCCCC2)c(Br)c1` [Compound 306, N-(3-bromo-4-cyclohexylphenyl)-7-methyl-2,3-dioxo-1,2,3,4-tetrahydroquinoxaline-6-sulfonamide]: the EC50 in experiment [1] lay in the range of 30 to 100 nM; in experiment [2] it was 100 to 1000 nM.

For the compound `Cc1cc2[nH]c(=O)c(=O)[nH]c2cc1S(=O)(=O)Nc1ccc(-c2ccc(F)c(F)c2F)c(Cl)c1` [Compound 307, N-[3-chloro-4-(2,3,4-trifluorophenyl)phenyl]-7-methyl-2,3-dioxo-1,4-dihydroquinoxaline-6-sulfonamide], the EC50 in experiment [1] and in experiment [2] was 30 to 100 nM each time.

On to `Cc1cc2[nH]c(=O)c(=O)[nH]c2cc1S(=O)(=O)Nc1ccc(-c2c(F)cccc2F)c(Cl)c1` [Compound 308, N-[3-chloro-4-(2,6-difluorophenyl)phenyl]-7-methyl-2,3-dioxo-1,4-dihydroquinoxaline-6-sulfonamide], for which the EC50 in experiment [1] and in experiment [2] was 30 to 100 nM throughout.

Take `Cc1cc2[nH]c(=O)c(=O)[nH]c2cc1S(=O)(=O)Nc1ccc(-c2cc(F)cc(F)c2)c(Cl)c1` [Compound 309, N-[3-chloro-4-(3,5-difluorophenyl)phenyl]-7-methyl-2,3-dioxo-1,4-dihydroquinoxaline-6-sulfonamide]: the EC50 in experiment [1] is < 30 nM; in experiment [2], 100 to 1000 nM.
